Reference: US20210300924A1, “5-[6-[[3-(4,5,6,7-TETRAHYDROPYRAZOLO[4,3-C]PYRIDIN-1-YL)AZETIDIN-1-YL]METHYL]MORPHOLIN-4-YL]QUINOLINE-8-CARBONITRILE DERIVATIVES AND SIMILAR COMPOUNDS AS TLR7-9 ANTAGONISTS FOR TREATING SYSTEMIC LUPUS ERYTHEMATOSUS” (Hoffmann-La Roche Inc., priority 2018, published 2021)

The molecules below were run against T1, TLR9 (Homo sapiens, UniProt Q9NR96) (assay: HEK293-Blue-hTLR-9 cells assay). Conditions: HEK293-Blue-hTLR9 cells, ODN2006 stimulation, 20 hrs, SEAP reporter; read-out: HEK/hTLR9 IC50.
T1 sequence (Q9NR96 26-1032): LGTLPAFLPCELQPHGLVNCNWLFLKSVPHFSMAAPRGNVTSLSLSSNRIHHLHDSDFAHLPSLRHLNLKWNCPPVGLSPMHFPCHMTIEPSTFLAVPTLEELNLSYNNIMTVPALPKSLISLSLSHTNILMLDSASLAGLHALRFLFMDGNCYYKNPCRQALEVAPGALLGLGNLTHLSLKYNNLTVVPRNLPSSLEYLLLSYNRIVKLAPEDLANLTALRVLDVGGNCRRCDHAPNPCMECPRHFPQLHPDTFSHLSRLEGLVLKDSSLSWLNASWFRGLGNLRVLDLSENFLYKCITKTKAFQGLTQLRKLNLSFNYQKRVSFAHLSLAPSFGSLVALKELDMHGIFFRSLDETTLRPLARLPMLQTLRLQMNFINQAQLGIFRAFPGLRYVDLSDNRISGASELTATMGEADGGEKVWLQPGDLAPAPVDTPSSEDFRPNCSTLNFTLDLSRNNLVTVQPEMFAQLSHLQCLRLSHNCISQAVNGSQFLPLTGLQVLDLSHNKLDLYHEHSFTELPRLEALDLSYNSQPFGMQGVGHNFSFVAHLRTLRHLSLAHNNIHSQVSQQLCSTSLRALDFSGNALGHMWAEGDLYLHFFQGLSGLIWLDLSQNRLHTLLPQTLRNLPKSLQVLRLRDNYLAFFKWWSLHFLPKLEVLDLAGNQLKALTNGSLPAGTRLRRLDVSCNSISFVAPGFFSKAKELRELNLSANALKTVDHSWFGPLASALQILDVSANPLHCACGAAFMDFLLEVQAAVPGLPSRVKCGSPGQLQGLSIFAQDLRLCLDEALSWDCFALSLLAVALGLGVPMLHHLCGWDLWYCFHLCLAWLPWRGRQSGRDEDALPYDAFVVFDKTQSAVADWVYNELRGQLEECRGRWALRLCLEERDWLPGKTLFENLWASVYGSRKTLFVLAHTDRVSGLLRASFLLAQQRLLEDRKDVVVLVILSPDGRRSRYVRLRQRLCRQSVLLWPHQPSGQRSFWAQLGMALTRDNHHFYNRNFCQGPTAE
Assay type: cell-based
Parameters: host or cells: HEK293 (HEK-Blue hTLR9)
Description: HEK293-Blue-hTLR-9 Cells Assay:
A stable HEK293-Blue-hTLR-9 cell line was purchased from InvivoGen (Cat. #: hkb-htlr9, San Diego, Calif., USA). These cells were originally designed for studying the stimulation of human TLR9 by monitoring the activation of NF-κB. A SEAP (secreted embryonic alkaline phosphatase) reporter gene was placed under the control of the IFN-β minimal promoter fused to five NF-κB and AP-1-binding sites. The SEAP was induced by activating NF-κB and AP-1 via stimulating HEK-Blue hTLR9 cells with TLR9 ligands. Therefore the reporter expression was declined by TLR9 antagonist under the stimulation of a ligand, such as ODN2006 (Cat. #: tlr1-2006-1, Invivogen, San Diego, Calif., USA), for incubation of 20 hrs. The cell culture supernatant SEAP reporter activity was determined using QUANTI-Blue™ kit (Cat. #: rep-01, Invivogen, San Diego, Calif., USA) at a wavelength of 640 nm, a detection medium that turns purple or blue in the presence of alkaline phosphatase.
HEK293-Blue-hTLR9 cells were incubated at a density of 250,000-450,000 cells/mL in a volume of 170 μL in a 96-well plate in Dulbecco's Modified Eagle's medium (DMEM) containing 4.5 g/L glucose, 50 U/mL penicillin, […], 2 mM L-glutamine, 10% (v/v) heat-inactivated fetal bovine serum with addition of 20 μL test compound in a serial dilution in the presence of final DMSO at 1% and 10 μL of 20 uM ODN2006 in above DMEM, perform incubation under 37° C. in a CO2 incubator for 20 hrs. Then 20 μL of the supernatant from each well was incubated with 180 μL Quanti-blue substrate solution at 37° C. for 2 h and the absorbance was read at 620-655 nm using a spectrophotometer. The signaling pathway that TLR9 activation leads to downstream NF-κB activation has been widely accepted, and therefore similar reporter assay was modified for evaluating TLR9 antagonist.

Row | Compound | IC50
1 | C[C@@H]1Cc2nn(C3CN(C[C@H]4CN(c5ccc(C#N)c6ncccc56)C[C@@H](C)O4)C3)cc2CN1 [Example 17, 5-[(2R,6S)-2-methyl-6-[[3-[(6R)-6-methyl-4,5,6,7-tetrahydropyrazolo[4,3-c]pyridin-2-yl]azetidin-1-yl]methyl]morpholin-4-yl]quinoline-8-carbonitrile] | 88 nM
2 | Cc1c2c(nn1C1CN(C[C@H]3CN(c4ccc(C#N)c5ncccc45)C[C@@H](C)O3)C1)CCNC2 [Example 13, 5-[(2R,6S)-2-methyl-6-[[3-(3-methyl-4,5,6,7-tetrahydropyrazolo[4,3-c]pyridin-2-yl)azetidin-1-yl]methyl]morpholin-4-yl]quinoline-8-carbonitrile] | 118 nM
3 | C[C@@H]1CN(c2ccc(C#N)c3ncccc23)C[C@H](CN2CC(n3ncc4c3CCN[C@H]4C)C2)O1 [Example 22, 5-[(2R,6S)-2-methyl-6-[[3-[(4S)-4-methyl-4,5,6,7-tetrahydropyrazolo[4,3-c]pyridin-1-yl]azetidin-1-yl]methyl]morpholin-4-yl]quinoline-8-carbonitrile] | 70 nM
4 | CCN1CCc2cnn(C3CN(C[C@H]4CN(c5ccc(C#N)c6ncccc56)C[C@@H](C)O4)C3)c2C1 [Example 6, 5-[(2S,6R)-2-[[3-(6-ethyl-5,7-dihydro-4H-pyrazolo[3,4-c]pyridin-1-yl)azetidin-1-yl]methyl]-6-methyl-morpholin-4-yl]quinoline-8-carbonitrile] | 153 nM
5 | C[C@@H]1CN(c2ccc(C#N)c3ncccc23)C[C@H](CN2CC(n3cc4c(n3)CCN[C@H]4C)C2)O1 [Example 23, 5-[(2R,6S)-2-methyl-6-[[3-[(4S)-4-methyl-4,5,6,7-tetrahydropyrazolo[4,3-c]pyridin-2-yl]azetidin-1-yl]methyl]morpholin-4-yl]quinoline-8-carbonitrile] | 84 nM
6 | CC(C)N1CCc2cn(C3CN(C[C@H]4CN(c5ccc(C#N)c6ncccc56)C[C@@H](C)O4)C3)nc2C1 [Example 9, 5-[(2S,6R)-2-[[3-(6-isopropyl-5,7-dihydro-4H-pyrazolo[3,4-c]pyridin-2-yl)azetidin-1-yl]methyl]-6-methyl-morpholin-4-yl]quinoline-8-carbonitrile] | 172 nM
7 | C[C@@H]1CN(c2ccc(C#N)c3ncccc23)C[C@H](CN2CC(n3cc4c(n3)C(C)(C)CNC4)C2)O1 [Example 24, 5-[(2S,6R)-2-[[3-(7,7-dimethyl-5,6-dihydro-4H-pyrazolo[4,3-c]pyridin-2-yl)azetidin-1-yl]methyl]-6-methyl-morpholin-4-yl]quinoline-8-carbonitrile] | 98 nM
8 | C[C@@H]1CN(c2ccc(C#N)c3ncccc23)C[C@H](CN2CC(n3ncc4c3CCNC4)C2)O1 [Example 1, 5-[(2R,6S)-2-methyl-6-[[3-(4,5,6,7-tetrahydropyrazolo[4,3-c]pyridin-1-yl)azetidin-1-yl]methyl]morpholin-4-yl]quinoline-8-carbonitrile] | 57 nM
9 | C[C@@H]1Cc2cnn(C3CN(C[C@H]4CN(c5ccc(C#N)c6ncccc56)C[C@@H](C)O4)C3)c2CN1 (single isomer, unassigned) [Example 28] | 71 nM
10 | C[C@@H]1CN(c2ccc(C#N)c3ncccc23)C[C@H](CN2CC(n3ncc4c3C[C@H](C)NC4)C2)O1 [Example 18, 5-[(2R,6S)-2-methyl-6-[[3-[(6S)-6-methyl-4,5,6,7-tetrahydropyrazolo[4,3-c]pyridin-1-yl]azetidin-1-yl]methyl]morpholin-4-yl]quinoline-8-carbonitrile] | 147 nM
11 | Cc1nn(C2CN(C[C@H]3CN(c4ccc(C#N)c5ncccc45)C[C@@H](C)O3)C2)c2c1CCNC2 [Example 42, 5-[(2R,6S)-2-methyl-6-[[3-(3-methyl-4,5,6,7-tetrahydropyrazolo[3,4-c]pyridin-1-yl)azetidin-1-yl]methyl]morpholin-4-yl]quinoline-8-carbonitrile] | 134 nM
12 | CC(C)N1CCc2cnn(C3CN(C[C@H]4CN(c5ccc(C#N)c6ncccc56)C[C@@H](C)O4)C3)c2C1 [Example 8, 5-[(2S,6R)-2-[[3-(6-isopropyl-5,7-dihydro-4H-pyrazolo[3,4-c]pyridin-1-yl)azetidin-1-yl]methyl]-6-methyl-morpholin-4-yl]quinoline-8-carbonitrile] | 125 nM
13 | C[C@@H]1CN(c2ccc(C#N)c3ncccc23)C[C@H](CN2CC(n3cc4c(n3)[C@@H](C)CNC4)C2)O1 (single isomer, unassigned) [Example 26] | 89 nM
14 | C[C@@H]1CN(c2ccc(C#N)c3ncccc23)C[C@H](CN2CC(n3cc4c(n3)CN(C)CC4)C2)O1 [Example 5, 5-[(2R,6S)-2-methyl-6-[[3-(6-methyl-5,7-dihydro-4H-pyrazolo[3,4-c]pyridin-2-yl)azetidin-1-yl]methyl]morpholin-4-yl]quinoline-8-carbonitrile] | 137 nM
15 | C[C@@H]1CN(c2ccc(C#N)c3ncccc23)C[C@H](CN2CC(n3ncc4c3[C@@H](C)NCC4)C2)O1 (single isomer, unassigned) [Example 31] | 61 nM
